Reference: patent US11319306B2, “Compositions and methods for treating neurodegenerative diseases” (Azevan Pharmaceuticals, Inc., priority 2014, dated 2022)

Target: T1, human V1a receptor (Homo sapiens, UniProt P37288)
T1 construct: host or cells: CHO cells (hV1a cell line)
Assay: Human vasopressin V1a receptor binding assay (3H-AVP competition, hV1a CHO cells)
Conditions: 3H-AVP competition, CHO cells expressing human V1a; for Ki: read-out: V1a Ki; for IC50: read-out: V1a Binding Affinity IC50
Experimental: Human vasopression V1a receptor binding assay. A cell line expressing the human V1a receptor in CHO cells (henceforth referred to as the hV1a cell line) was obtained from Dr. Michael Brownstein, NIMH, Bethesda, Md., USA. The hV1a cDNA sequence is described by Thibonnier et al., Journal of Biological Chemistry, 269, 3304-3310 (1994), and the expression method was the same as described by Morel et al. (1992). The hV1a cell line was grown in alpha-MEM with 10% fetal bovine serum and 250 ug/ml G418 (Gibco, Grand Island, N.Y., USA). For competitive binding assay, hV1a cells were plated into 6-well culture plate at 1:10 dilution from a confluency flask, and maintained in culture for at least two days. Culture medium was then removed, cells were washed with 2 ml binding buffer (25 mM Hepes, 0.25% BSA, 1×DMEM, PH=7.0). To each well, 990 μl binding buffer containing InM 3H-AVP was added, and followed by 10 μl series diluted Example compounds dissolved in DMSO. […] 100 nM cold AVP (Sigma) was used to assess non-specific binding. Cells were incubated for 45 minutes at 37° C., assay mixture was removed and each well was washed three times with PBS (pH=7.4). 1 ml 2% SDS was added per well and plates were let sit for 30 minutes. The whole content in a well was transferred to a scintillation vial. Each well was rinsed with 0.5 ml PBS which was then added to the corresponding vial. Scintillation fluid (Ecoscint, National Diagnostics, Atlanta, Ga.) was then added at 3 ml per vial. Samples were counted in a liquid scintillation counter (Beckman LS3801). IC50 values were calculated by Prism Curve fitting software.
All of the alkanedioic esters and amides exemplified in the foregoing examples dissolved in DMSO were tested in this assay. Binding curves were generated according to methods described by Thibonnier et al. (1994). [^3H]-AVP was added to the hV1a cell cultures followed by 10-fold dilutions of each test compound.

T1 sequence (P37288 whole entry): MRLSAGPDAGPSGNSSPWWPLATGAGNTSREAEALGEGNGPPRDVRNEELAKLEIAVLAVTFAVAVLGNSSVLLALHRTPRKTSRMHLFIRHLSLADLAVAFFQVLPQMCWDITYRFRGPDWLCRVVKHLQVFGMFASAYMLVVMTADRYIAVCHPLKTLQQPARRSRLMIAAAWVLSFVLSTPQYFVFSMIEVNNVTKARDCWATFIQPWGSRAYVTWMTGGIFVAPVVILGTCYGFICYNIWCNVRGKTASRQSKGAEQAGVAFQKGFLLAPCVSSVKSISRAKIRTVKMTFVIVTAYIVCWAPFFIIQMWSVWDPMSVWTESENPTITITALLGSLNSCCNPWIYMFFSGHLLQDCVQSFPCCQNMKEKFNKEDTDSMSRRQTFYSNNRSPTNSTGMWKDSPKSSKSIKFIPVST

Row | Ki | IC50 | Structure (SMILES)
1 | 85 nM | – | O=C(NCc1cccc(C(F)(F)F)c1)C(C(=O)N1CCN(CCc2ccccc2)CC1)N1C(=O)[C@@H](N2C(=O)OC[C@@H]2c2ccccc2)[C@H]1/C=C/c1ccccc1 (mixture of isomers) [Example 38]
2 | 18.2 nM | – | CC(C)N1CCN(C(=O)C(C(=O)NCc2cccc(C(F)(F)F)c2)N2C(=O)[C@@H](N3C(=O)OC[C@@H]3c3ccccc3)[C@H]2/C=C/c2ccccc2)CC1 (mixture of isomers) [Example 41]
3 | 26.4 nM | – | O=C(NCc1cccc(C(F)(F)F)c1)C(C(=O)N1CCN(C2CCCCC2)CC1)N1C(=O)[C@@H](N2C(=O)OC[C@@H]2c2ccccc2)[C@H]1/C=C/c1ccccc1 (mixture of isomers) [Example 42]
4 | 0.85 nM | – | O=C(NC(c1ccccc1)C(F)(F)F)C(CC(=O)N1CCC(N2CCCCC2)CC1)N1C(=O)C(N2C(=O)OCC2c2ccccc2)C1C=Cc1ccccc1 (single isomer, unassigned) [Example 623]
5 | 0.27 nM | – | O=C(NC(c1ccccc1)C(F)(F)F)C(CC(=O)N1CCC(N2CCCCC2)CC1)N1C(=O)C(N2C(=O)OCC2c2ccccc2)C1C=Cc1ccccc1 (single isomer, unassigned) [Example 626]
6 | 3.39 nM | 5.5 nM | O=C(NCc1cccc(C(F)(F)F)c1)C(C(=O)N1CCC(N2CCCCC2)CC1)N1C(=O)C(N2C(=O)OCC2c2ccccc2)C1C=Cc1ccccc1 (centres unmarked) [Example 37]
7 | 13.3 nM | 23 nM | O=C(NCc1cccc(C(F)(F)F)c1)C(C(=O)NC1CCN(Cc2ccccc2)CC1)N1C(=O)C(N2C(=O)OCC2c2ccccc2)C1C=Cc1ccccc1 (centres unmarked) [Example 39]
8 | 6.5 nM | 11 nM | CCCCN1CCN(C(=O)C(C(=O)NCc2cccc(C(F)(F)F)c2)N2C(=O)C(N3C(=O)OCC3c3ccccc3)C2C=Cc2ccccc2)CC1 (centres unmarked) [Example 40]
9 | 1.17 nM | 1.77 nM | O=C(NCc1cccc(C(F)(F)F)c1)C(C(=O)N1CCC(CCN2CCCCC2)CC1)N1C(=O)C(N2C(=O)OCC2c2ccccc2)C1C=Cc1ccccc1 (centres unmarked) [Example 42A]
10 | 1.13 nM | 1.84 nM | O=C(CC(C(=O)NCc1cccc(C(F)(F)F)c1)N1C(=O)C(N2C(=O)OCC2c2ccccc2)C1C=Cc1ccccc1)NC1CCN(Cc2ccccc2)CC1 (centres unmarked) [Example 63]
11 | 5.12 nM | – | O=C(NCc1cccc(C(F)(F)F)c1)[C@H](CC(=O)N1CCCN(Cc2ccccc2)CC1)N1C(=O)[C@@H](N2C(=O)OC[C@@H]2c2ccccc2)[C@H]1/C=C/c1ccccc1 [Example 82]
12 | 3.6 nM | 5.87 nM | O=C(CC(C(=O)NCc1cccc(C(F)(F)F)c1)N1C(=O)C(N2C(=O)OCC2c2ccccc2)C1C=Cc1ccccc1)NC1CCN(Cc2ccccc2)C1 (centres unmarked) [Example 85]
13 | 6 nM | 9.79 nM | O=C(NCc1cccc(C(F)(F)F)c1)C(CC(=O)N1CCC(CCN2CCCCC2)CC1)N1C(=O)C(N2C(=O)OCC2c2ccccc2)C1C=Cc1ccccc1 (centres unmarked) [Example 86A]

Row | Structure (SMILES) | Ki | IC50
14 | CC(C)(C)OC(=O)C(C(=O)NCc1cccc(C(F)(F)F)c1)N1C(=O)C(N2C(=O)OCC2c2ccccc2)C1C=Cc1ccccc1 [Example 18, 2(RS)-(tert-Butoxycarbonyl)-2-[3(S)-(4(S)-phenyloxazolidin-2-on-3-yl)-4(R)-(2-styryl)azetidin-2-on-1-yl]acetic acid N-(3-trifluoromethylbenzyl)amide] | – | 35 nM
15 | CC(C)(C)OC(=O)CC(C(=O)NCc1cccc(C(F)(F)F)c1)N1C(=O)C(N2C(=O)OCC2c2ccccc2)C1C=Cc1ccccc1 [Example 19, 2(S)-(tert-Butoxycarbonylmethyl)-2-[3(S)-(4(S)-phenyloxazolidin-2-on-3-yl)-4(R)-(2-styryl)azetidin-2-on-1-yl]acetic acid N-(3-trifluoromethylbenzyl)amide] | – | 35 nM
16 | CC(C)(C)OC(=O)CCC(C(=O)NCc1cccc(C(F)(F)F)c1)N1C(=O)C(N2C(=O)OCC2c2ccccc2)C1C=Cc1ccccc1 [Example 20, 2(S)-(tert-Butoxycarbonylethyl)-2-[3(S)-(4(S)-phenyloxazolidin-2-on-3-yl)-4(R)-(2-styryl)azetidin-2-on-1-yl]acetic acid N-(3-trifluoromethylbenzyl)amide] | – | 35 nM
